Tests used:
[1] = tested on: activated factor X (factor Xa); assay: anti-Xa activity, amidolytic method on a chromogenic substrate; type: biochemical; details: isolated hexasaccharide
Protocol: The anti-Xa activity is measured by the amidolytic method on a chromogenic substrate described by Teien et al., Thromb. Res., 10, 399-410 (1977), with, as standard, the first international standard for low-molecular-weight heparins. See Barrowcliffe, T. W., A. D. Curtis, et al. (1985). “Standardization of Low Molecular Weight Heparins: A Collaborative Study.” Thrombosis and Haemostasis 54: 675-679; and Barrowcliffe, T. W. (1988). “An International Standard for Low Molecular Weight Heparin.” Thrombosis and Haemostasis 60:1-7.

ATIII = ATIII (Homo sapiens, UniProt P01008)
Sequence of ATIII (P01008 33-464, species assumed): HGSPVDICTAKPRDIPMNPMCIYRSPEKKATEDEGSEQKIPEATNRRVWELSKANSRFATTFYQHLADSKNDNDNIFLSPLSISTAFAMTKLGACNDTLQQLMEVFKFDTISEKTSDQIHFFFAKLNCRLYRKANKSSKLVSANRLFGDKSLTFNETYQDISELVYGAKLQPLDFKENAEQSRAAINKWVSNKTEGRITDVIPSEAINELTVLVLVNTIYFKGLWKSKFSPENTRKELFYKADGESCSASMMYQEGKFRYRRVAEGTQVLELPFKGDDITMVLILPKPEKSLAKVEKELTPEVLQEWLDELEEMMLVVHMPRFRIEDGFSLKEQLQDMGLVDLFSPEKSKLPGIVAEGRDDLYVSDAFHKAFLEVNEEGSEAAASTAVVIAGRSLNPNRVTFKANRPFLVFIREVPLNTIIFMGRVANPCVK

CC(=O)N[C@H]1[C@@H](O[C@H]2[C@H](O)[C@@H](O)[C@H](O[C@H]3[C@H](OS(=O)(=O)O)[C@@H](NS(=O)(=O)O)[C@@H](O[C@H]4[C@H](O)[C@@H](OS(=O)(=O)O)[C@H](O[C@H]5[C@H](O)[C@@H](NS(=O)(=O)O)[C@@H](O)O[C@@H]5COS(=O)(=O)O)O[C@H]4C(=O)O)O[C@@H]3COS(=O)(=O)O)O[C@@H]2C(=O)O)O[C@H](COS(=O)(=O)O)[C@@H](O[C@@H]2OC(C(=O)O)=C[C@H](O)[C@H]2O)[C@@H]1O [hexasaccharide ΔIIa-IIs-Is]
aXa activity [1]: greater than 740 U/mg | affinity for ATIII (ATIII): high affinity

Reference: US8071570B2, “Mixtures of polysaccharides derived from heparin, their preparation and pharmaceutical compositions containing them” (Aventis Pharma S.A., priority 2002, dated 2011)
